# In ChEMBL document CHEMBL3885861, “Open TG-GATES”:
# Organism: Rattus norvegicus
# Assay: Open TG-GATES - Regimen: Daily Repeat
# Format: toxicity, organism-based, Sprague-Dawley
# Parameters: regimen Daily Repeat, gender Male, age 6 weeks
# Conditions: in vivo, po, route gavage; for APTT / Bas / Eos / Fbg / Hb / Ht / Lym / MCH / MCHC / MCV / Mono / Neu / PT / Plat / RBC / Ret / WBC: tissue Blood; for ALP / ALT / AST / BUN / CRE / DBIL / GLC / IP / K / Na / PL / RALB / TBIL / TC / TG / TP / gamma-GTP: tissue Plasma
# [1] = 0 mg/kg, 72 h, dose level Control, time 3 day
# [2] = 0 mg/kg, […], dose level Control, time 7 day
# [3] = 0 mg/kg, […], dose level Control, time 14 day
# [4] = 0 mg/kg, […], dose level Control, time 28 day
# [5] = 30 mg/kg, 72 h, dose level Low, time 3 day
# [6] = 30 mg/kg, […], dose level Low, time 7 day
# [7] = 30 mg/kg, […], dose level Low, time 14 day
# [8] = 30 mg/kg, […], dose level Low, time 28 day
smiles,measurement,setting,value
NS(=O)(=O)c1cc(C(=O)O)c(NCc2ccco2)cc1Cl [FUROSEMIDE],TERMINAL_BW,[1],240.2 g
same,APTT,[1],15.8 s
same,Bas,[1],0.2%
same,Eos,[1],1%
same,Fbg,[1],306 mg/dL
same,Hb,[1],13.5 g/dL
same,Ht,[1],40.3%
same,Lym,[1],73.8%
same,MCH,[1],21.5 pg
same,MCHC,[1],33.6%
same,MCV,[1],64.1 fL
same,Mono,[1],3.2%
same,Neu,[1],21.2%
same,PT,[1],14.8 s
same,Plat,[1],114.8 x10_4/uL
same,RBC,[1],629.2 x10_4/ul
same,Ret,[1],6.5%
same,WBC,[1],92.7 x10_2/uL
same,ALP,[1],1396.2 IU/L
same,ALT,[1],42 IU/L
same,AST,[1],66.2 IU/L
same,BUN,[1],14.4 mg/dL
same,CRE,[1],0.2 mg/dL
same,DBIL,[1],0.016 mg/dL
same,GLC,[1],180.2 mg/dL
same,IP,[1],7.7 mg/dL
same,K,[1],3.8 meq/L
same,Na,[1],142.6 meq/L
same,PL,[1],182 mg/dL
same,RALB,[1],2.7 g/dL
same,TBIL,[1],0.056 mg/dL
same,TC,[1],91 mg/dL
same,TG,[1],130 mg/dL
same,TP,[1],5.8 g/dL
same,gamma-GTP,[1],0.4 IU/L
same,TERMINAL_BW,[2],280.2 g
same,TERMINAL_BW,[3],327.8 g
same,TERMINAL_BW,[4],406.3 g
same,APTT,[2],17.8 s
same,Bas,[2],0.6%
same,Eos,[2],1%
same,Fbg,[2],294.2 mg/dL
same,Hb,[2],13.7 g/dL
same,Ht,[2],39.9%
same,Lym,[2],80.2%
same,MCH,[2],21.2 pg
same,MCHC,[2],34.5%
same,MCV,[2],61.5 fL
same,Mono,[2],2.6%
same,Neu,[2],14.8%
same,PT,[2],15.5 s
same,Plat,[2],125.8 x10_4/uL
same,RBC,[2],648.6 x10_4/ul
same,Ret,[2],5.2%
same,WBC,[2],100.8 x10_2/uL
same,APTT,[3],19.3 s
same,Bas,[3],0.4%
same,Eos,[3],1%
same,Fbg,[3],289.4 mg/dL
same,Hb,[3],15 g/dL
same,Ht,[3],43.1%
same,Lym,[3],81%
same,MCH,[3],21 pg
same,MCHC,[3],34.7%
same,MCV,[3],60.4 fL
same,Mono,[3],2.8%
same,Neu,[3],14.2%
same,PT,[3],15.3 s
same,Plat,[3],117.3 x10_4/uL
same,RBC,[3],713.8 x10_4/ul
same,Ret,[3],4.2%
same,WBC,[3],117.4 x10_2/uL
same,APTT,[4],17.8 s
same,Bas,[4],0.6%
same,Eos,[4],1.2%
same,Fbg,[4],266.6 mg/dL
same,Hb,[4],15.1 g/dL
same,Ht,[4],44.6%
same,Lym,[4],82.2%
same,MCH,[4],19.1 pg
same,MCHC,[4],33.7%
same,MCV,[4],56.7 fL
same,Mono,[4],2.2%
same,Neu,[4],13.4%
same,PT,[4],16.4 s
same,Plat,[4],100.7 x10_4/uL
same,RBC,[4],787.6 x10_4/ul
same,Ret,[4],1.8%
same,WBC,[4],98.8 x10_2/uL
same,ALP,[2],1277.2 IU/L
same,ALT,[2],38.2 IU/L
same,AST,[2],61.4 IU/L
same,BUN,[2],15.6 mg/dL
same,CRE,[2],0.2 mg/dL
same,DBIL,[2],0.018 mg/dL
same,GLC,[2],179.4 mg/dL
same,IP,[2],7.8 mg/dL
same,K,[2],4 meq/L
same,Na,[2],142.6 meq/L
same,PL,[2],168 mg/dL
same,RALB,[2],2.7 g/dL
same,TBIL,[2],0.05 mg/dL
same,TC,[2],85.6 mg/dL
same,TG,[2],119.8 mg/dL
same,TP,[2],5.9 g/dL
same,gamma-GTP,[2],0.8 IU/L
same,ALP,[3],1456.8 IU/L
same,ALT,[3],43.4 IU/L
same,AST,[3],64.6 IU/L
same,BUN,[3],15.2 mg/dL
same,CRE,[3],0.2 mg/dL
same,DBIL,[3],0.014 mg/dL
same,GLC,[3],177.8 mg/dL
same,IP,[3],7.4 mg/dL
same,K,[3],4.1 meq/L
same,Na,[3],143.6 meq/L
same,PL,[3],160.6 mg/dL
same,RALB,[3],2.8 g/dL
same,TBIL,[3],0.046 mg/dL
same,TC,[3],69.8 mg/dL
same,TG,[3],157.2 mg/dL
same,TP,[3],6.1 g/dL
same,gamma-GTP,[3],0.6 IU/L
same,ALP,[4],1033.8 IU/L
same,ALT,[4],36.4 IU/L
same,AST,[4],64.6 IU/L
same,BUN,[4],14.4 mg/dL
same,CRE,[4],0.2 mg/dL
same,DBIL,[4],0.016 mg/dL
same,GLC,[4],183.4 mg/dL
same,IP,[4],6.3 mg/dL
same,K,[4],3.9 meq/L
same,Na,[4],143.8 meq/L
same,PL,[4],137.2 mg/dL
same,RALB,[4],2.8 g/dL
same,TBIL,[4],0.048 mg/dL
same,TC,[4],64.8 mg/dL
same,TG,[4],116.6 mg/dL
same,TP,[4],6.2 g/dL
same,gamma-GTP,[4],0.4 IU/L
same,TERMINAL_BW,[5],242 g
same,APTT,[5],16.1 s
same,Bas,[5],0.2%
same,Eos,[5],1%
same,Fbg,[5],282.4 mg/dL
same,Hb,[5],13.4 g/dL
same,Ht,[5],39.8%
same,Lym,[5],79.2%
same,MCH,[5],21.7 pg
same,MCHC,[5],33.6%
same,MCV,[5],64.6 fL
same,Mono,[5],2.4%
same,Neu,[5],16.8%
same,PT,[5],15.2 s
same,Plat,[5],115.5 x10_4/uL
same,RBC,[5],617 x10_4/ul
same,Ret,[5],5.5%
same,WBC,[5],93.7 x10_2/uL
same,ALP,[5],1458.2 IU/L
same,ALT,[5],37.6 IU/L
same,AST,[5],66.6 IU/L
same,BUN,[5],16.2 mg/dL
same,CRE,[5],0.2 mg/dL
same,DBIL,[5],0.012 mg/dL
same,GLC,[5],173.8 mg/dL
same,IP,[5],7.3 mg/dL
same,K,[5],3.8 meq/L
same,Na,[5],142.6 meq/L
same,PL,[5],157 mg/dL
same,RALB,[5],2.6 g/dL
same,TBIL,[5],0.048 mg/dL
same,TC,[5],79.2 mg/dL
same,TG,[5],94.6 mg/dL
same,TP,[5],5.7 g/dL
same,gamma-GTP,[5],0.6 IU/L
same,TERMINAL_BW,[6],283.7 g
same,TERMINAL_BW,[7],321.7 g
same,TERMINAL_BW,[8],410.5 g
same,APTT,[6],17.3 s
same,Bas,[6],0.2%
same,Eos,[6],1%
same,Fbg,[6],291 mg/dL
same,Hb,[6],13.4 g/dL
same,Ht,[6],39.7%
same,Lym,[6],78.2%
same,MCH,[6],21.2 pg
same,MCHC,[6],33.7%
same,MCV,[6],62.8 fL
same,Mono,[6],3%
same,Neu,[6],16.4%
same,PT,[6],15.5 s
same,Plat,[6],114.5 x10_4/uL
same,RBC,[6],631.8 x10_4/ul
same,Ret,[6],5.9%
same,WBC,[6],125.8 x10_2/uL
same,APTT,[7],19.2 s
same,Bas,[7],0.4%
same,Eos,[7],0.8%
same,Fbg,[7],296.8 mg/dL
same,Hb,[7],14.4 g/dL
same,Ht,[7],42.1%
same,Lym,[7],81.4%
same,MCH,[7],20.8 pg
same,MCHC,[7],34.3%
same,MCV,[7],60.7 fL
same,Mono,[7],2.2%
same,Neu,[7],14.2%
same,PT,[7],15.8 s
same,Plat,[7],109.5 x10_4/uL
same,RBC,[7],693.6 x10_4/ul
same,Ret,[7],3.9%
same,WBC,[7],112.4 x10_2/uL
same,APTT,[8],17.7 s
same,Bas,[8],0.6%
same,Eos,[8],1%
same,Fbg,[8],270.4 mg/dL
same,Hb,[8],14.8 g/dL
same,Ht,[8],43.9%
same,Lym,[8],81.2%
same,MCH,[8],19.8 pg
same,MCHC,[8],33.8%
same,MCV,[8],58.5 fL
same,Mono,[8],1.8%
same,Neu,[8],15%
same,PT,[8],15.8 s
same,Plat,[8],95.5 x10_4/uL
same,RBC,[8],750.2 x10_4/ul
same,Ret,[8],2.5%
same,WBC,[8],110.9 x10_2/uL
same,ALP,[6],1491.8 IU/L
same,ALT,[6],41.2 IU/L
same,AST,[6],67.4 IU/L
same,BUN,[6],16.2 mg/dL
same,CRE,[6],0.2 mg/dL
same,DBIL,[6],0.018 mg/dL
same,GLC,[6],188.2 mg/dL
same,IP,[6],7.5 mg/dL
same,K,[6],4 meq/L
same,Na,[6],142.6 meq/L
same,PL,[6],170.2 mg/dL
same,RALB,[6],2.6 g/dL
same,TBIL,[6],0.05 mg/dL
same,TC,[6],83.6 mg/dL
same,TG,[6],130.2 mg/dL
same,TP,[6],5.7 g/dL
same,gamma-GTP,[6],0.8 IU/L
same,ALP,[7],1426.6 IU/L
same,ALT,[7],40.8 IU/L
same,AST,[7],70 IU/L
same,BUN,[7],16.6 mg/dL
same,CRE,[7],0.2 mg/dL
same,DBIL,[7],0.016 mg/dL
same,GLC,[7],188.6 mg/dL
same,IP,[7],6.7 mg/dL
same,K,[7],3.9 meq/L
same,Na,[7],143.6 meq/L
same,PL,[7],152 mg/dL
same,RALB,[7],2.6 g/dL
same,TBIL,[7],0.046 mg/dL
same,TC,[7],72.2 mg/dL
same,TG,[7],126.6 mg/dL
same,TP,[7],5.9 g/dL
same,gamma-GTP,[7],0.4 IU/L
same,ALP,[8],1044.8 IU/L
same,ALT,[8],36 IU/L
same,AST,[8],58.6 IU/L
same,BUN,[8],15.8 mg/dL
same,CRE,[8],0.2 mg/dL
same,DBIL,[8],0.016 mg/dL
same,GLC,[8],179.4 mg/dL
same,IP,[8],5.8 mg/dL
same,K,[8],3.9 meq/L
same,Na,[8],144 meq/L
same,PL,[8],164.4 mg/dL
same,RALB,[8],2.7 g/dL
same,TBIL,[8],0.044 mg/dL
same,TC,[8],78.4 mg/dL
same,TG,[8],155.8 mg/dL
same,TP,[8],6.3 g/dL
same,gamma-GTP,[8],1 IU/L
